Data from PubChem BioAssay AID330 (DTP/NCI, 2004).
Where “and” joins values, the source holds several entries; their conditions need not be identical. Equal entries are not always repeated. Toxic doses and inconclusive results are not listed.

System: P388 leukemia ip, CD2F1 mice, survival T/C
Experiment: NCI In Vivo Anticancer Drug Screen. Data for tumor model P388 Leukemia (intraperitoneal) in CD2F1 (CDF1) mice
Conditions: endpoint: median survival time, higher = longer survival
Procedure, shortened: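 Mice carrying the transplanted tumor received test compound or vehicle. Survival was recorded in each group, and the value is the treated-group measurement divided by that of the vehicle-treated control group.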

[1] = dose: 50.0 mg/kg/injection, schedule: Q01DX009 (ip), vehicle: Klucel (hydroxypropylcellulose) (HPC)
[2] = dose: 100.0 mg/kg/injection, schedule: Q01DX009 (ip), vehicle: Klucel (hydroxypropylcellulose) (HPC)
[3] = dose: 200.0 mg/kg/injection, schedule: Q01DX009 (ip), vehicle: Klucel (hydroxypropylcellulose) (HPC)
[4] = dose: 100.0 mg/kg/injection, schedule: Q01DX009 (ip), vehicle: saline with Tween-80
[5] = dose: 200.0 mg/kg/injection, schedule: Q01DX009 (ip), vehicle: saline with Tween-80
[6] = dose: 50.0 mg/kg/injection, schedule: Q01DX005 (ip), vehicle: saline with Tween-80
[7] = dose: 100.0 mg/kg/injection, schedule: Q01DX005 (ip), vehicle: saline with Tween-80
[8] = dose: 200.0 mg/kg/injection, schedule: Q01DX005 (ip), vehicle: saline with Tween-80
[9] = dose: 12.5 mg/kg/injection, schedule: Q01DX009 (ip), vehicle: water
[10] = dose: 25.0 mg/kg/injection, schedule: Q01DX009 (ip), vehicle: water
[11] = dose: 50.0 mg/kg/injection, schedule: Q01DX009 (ip), vehicle: water
[12] = dose: 50.0 mg/kg/injection, schedule: Q01DX009 (ip), vehicle: saline with Tween-80
[13] = dose: 60.0 mg/kg/injection, schedule: Q01DX005 (ip), vehicle: saline with Tween-80
[14] = dose: 120.0 mg/kg/injection, schedule: Q01DX005 (ip), vehicle: saline with Tween-80
[15] = dose: 240.0 mg/kg/injection, schedule: Q01DX005 (ip), vehicle: saline with Tween-80
[16] = dose: 25.0 mg/kg/injection, schedule: Q01DX009 (ip), vehicle: saline

COc1cc2c(c(OC)c1OC)-c1cccc(=O)cc1C(NC(C)=O)CC2 (stereo unspecified)
T/C (dose: 1.25 mg/kg/injection, schedule: Q01DX009 (ip), vehicle: Klucel (hydroxypropylcellulose) (HPC)): 121 % of control
T/C (dose: 2.5 mg/kg/injection, schedule: Q01DX005 (ip), vehicle: saline): 100 % of control
T/C (dose: 5.0 mg/kg/injection, schedule: Q01DX005 (ip), vehicle: saline): 101 % of control
T/C (dose: 5.0 mg/kg/injection, schedule: Q01DX009 (ip), vehicle: Klucel (hydroxypropylcellulose) (HPC)): 150 % of control and 155 % of control
T/C (dose: 10.0 mg/kg/injection, schedule: Q01DX005 (ip), vehicle: saline): 104 % of control
T/C (dose: 10.0 mg/kg/injection, schedule: Q01DX009 (ip), vehicle: Klucel (hydroxypropylcellulose) (HPC)): 176 % of control and 179 % of control
T/C (dose: 20.0 mg/kg/injection, schedule: Q01DX005 (ip), vehicle: saline): 99 % of control
T/C (dose: 20.0 mg/kg/injection, schedule: Q01DX009 (ip), vehicle: Klucel (hydroxypropylcellulose) (HPC)): 233 % of control and 250 % of control
T/C (dose: 40.0 mg/kg/injection, schedule: Q01DX005 (ip), vehicle: saline): 104 % of control

O=C1c2ccccc2C(=O)N1c1cccc(CBr)c1
T/C (dose: 12.5 mg/kg/injection, schedule: Q01DX005 (ip), vehicle: Klucel (hydroxypropylcellulose) (HPC)): 102 % of control
T/C (dose: 25.0 mg/kg/injection, schedule: Q01DX005 (ip), vehicle: Klucel (hydroxypropylcellulose) (HPC)): 114 % of control
T/C (dose: 50.0 mg/kg/injection, schedule: Q01DX005 (ip), vehicle: Klucel (hydroxypropylcellulose) (HPC)): 113 % of control

Cc1ccc(S(=O)(=O)N/N=C/c2c(C)noc2C)cc1
T/C [1]: 101 % of control
T/C [2]: 95 % of control
T/C [3]: 95 % of control

O=c1c(Cl)c2cc3c(cc2c2ccccc12)nc1ccccc1n3-c1ccccc1
T/C (dose: 400.0 mg/kg/injection, schedule: Q01DX001 (ip), vehicle: saline with Tween-80): 89 % of control

O=[N+]([O-])c1ccc(-c2csc(-c3ccc(Br)cc3)n2)cc1
T/C [1]: 87 % of control
T/C [2]: 95 % of control
T/C [3]: 92 % of control

C=CCOC(N)=O
T/C [4]: 100 % of control
T/C [5]: 101 % of control
T/C (dose: 400.0 mg/kg/injection, schedule: Q01DX009 (ip), vehicle: saline with Tween-80): 101 % of control

ClC1=NOC(c2ccccc2)C1 (stereo unspecified)
T/C (dose: 6.25 mg/kg/injection, schedule: Q01DX005 (ip), vehicle: distilled water + Tween-80): 110 % of control
T/C (dose: 12.5 mg/kg/injection, schedule: Q01DX005 (ip), vehicle: distilled water + Tween-80): 97 % of control
T/C (dose: 25.0 mg/kg/injection, schedule: Q01DX005 (ip), vehicle: distilled water + Tween-80): 100 % of control
T/C (dose: 50.0 mg/kg/injection, schedule: Q01DX005 (ip), vehicle: distilled water + Tween-80): 105 % of control and 107 % of control
T/C (dose: 100.0 mg/kg/injection, schedule: Q01DX005 (ip), vehicle: distilled water + Tween-80): 99 % of control
T/C (dose: 200.0 mg/kg/injection, schedule: Q01DX005 (ip), vehicle: distilled water + Tween-80): 108 % of control

O=C(c1ccc(OCC(O)CN2CCN(c3ccccc3)CC2)cc1)c1cc2ccccc2c2ccccc12 (stereo unspecified)
T/C (dose: 100.0 mg/kg/injection, schedule: Q04DX003 (ip), vehicle: alcohol): 106 % of control
T/C (dose: 100.0 mg/kg/injection, schedule: Q04DX003 (ip), vehicle: other): 109 % of control
T/C (dose: 200.0 mg/kg/injection, schedule: Q04DX003 (ip), vehicle: alcohol): 120 % of control
T/C (dose: 200.0 mg/kg/injection, schedule: Q04DX003 (ip), vehicle: other): 105 % of control

CC(Oc1ccc(Cl)cc1Cl)C(=O)NC(Cc1ccccc1)C(=O)O (stereo unspecified)
T/C [6]: 102 % of control
T/C [7]: 110 % of control
T/C [8]: 102 % of control

CCN1C(=O)C(N2CCCCC2)S/C1=C\C(=O)O (stereo unspecified)
T/C [1]: 97 % of control
T/C [2]: 110 % of control
T/C [3]: 107 % of control

S=c1[nH]c2ccc(Cl)cc2s1
T/C [1]: 98 % of control
T/C [2]: 101 % of control
T/C [3]: 90 % of control
T/C (dose: 400.0 mg/kg/injection, schedule: Q01DX009 (ip), vehicle: Klucel (hydroxypropylcellulose) (HPC)): 95 % of control

CCOc1ccc(Cc2ccc3c(c2)OCO3)cc1C
T/C [6]: 101 % of control
T/C [7]: 108 % of control
T/C [8]: 111 % of control

COc1cccc2c1C(=O)c1c(O)c3c(c(O)c1C2=O)CC(O)(c1csc(-c2ccccc2)n1)CC3O (stereo unspecified)
T/C (dose: 1.56 mg/kg/injection, schedule: Q01DX009 (ip), vehicle: water): 106 % of control
T/C (dose: 3.13 mg/kg/injection, schedule: Q01DX009 (ip), vehicle: water): 100 % of control
T/C (dose: 6.25 mg/kg/injection, schedule: Q01DX009 (ip), vehicle: water): 109 % of control
T/C [9]: 109 % of control
T/C [10]: 103 % of control
T/C [11]: 108 % of control

COC1=CC(=[O+]C)/C(=C/c2c(OC)cc(OC)cc2OC)C(OC)=C1
T/C [12]: 94 % of control
T/C [4]: 86 % of control
T/C [5]: 86 % of control

O=C(/C=C/C(=O)Oc1cc(Cl)c(Cl)cc1Cl)Oc1cc(Cl)c(Cl)cc1Cl
T/C (dose: 100.0 mg/kg/injection, schedule: Q04DX003 (ip), vehicle: saline with Tween-80): 96 % of control
T/C (dose: 200.0 mg/kg/injection, schedule: Q04DX003 (ip), vehicle: saline with Tween-80): 88 % of control
T/C (dose: 400.0 mg/kg/injection, schedule: Q04DX003 (ip), vehicle: saline with Tween-80): 97 % of control

N#Cc1c2c(c(Cl)n3c1nc1ccccc13)CCC2
T/C [13]: 100 % of control
T/C [14]: 91 % of control
T/C [15]: 91 % of control

OC1COCC2N3C(=NN12)Sc1ccccc13 (stereo unspecified)
T/C (dose: 100.0 mg/kg/injection, schedule: Q04DX003 (ip), vehicle: saline): 105 % of control
T/C (dose: 200.0 mg/kg/injection, schedule: Q04DX003 (ip), vehicle: saline): 107 % of control
T/C (dose: 400.0 mg/kg/injection, schedule: Q04DX003 (ip), vehicle: saline): 98 % of control

CN(C)Cc1c(O)c2ccc(N(C)C)cc2[nH]c1=O
T/C (dose: 60.0 mg/kg/injection, schedule: Q01DX005 (ip), vehicle: Klucel (hydroxypropylcellulose) (HPC)): 92 % of control
T/C (dose: 120.0 mg/kg/injection, schedule: Q01DX005 (ip), vehicle: Klucel (hydroxypropylcellulose) (HPC)): 90 % of control
T/C (dose: 240.0 mg/kg/injection, schedule: Q01DX005 (ip), vehicle: Klucel (hydroxypropylcellulose) (HPC)): 96 % of control

CCCCCCCCC[N+]1(CC)CCCC1
T/C (dose: 6.25 mg/kg/injection, schedule: Q01DX009 (ip), vehicle: saline): 117 % of control
T/C (dose: 12.5 mg/kg/injection, schedule: Q01DX009 (ip), vehicle: saline): 117 % of control
T/C [16]: 91 % of control

COC1OC(COC(C)=O)C(N(C)C(C)=O)C1OC(C)=O (stereo unspecified)
T/C (dose: 60.0 mg/kg/injection, schedule: Q01DX005 (ip), vehicle: saline): 103 % of control
T/C (dose: 120.0 mg/kg/injection, schedule: Q01DX005 (ip), vehicle: saline): 96 % of control
T/C (dose: 240.0 mg/kg/injection, schedule: Q01DX005 (ip), vehicle: saline): 104 % of control

CCCCCCCCCCCCCCCCOC(=O)c1ccc(O)cc1
T/C [1]: 95 % of control
T/C [2]: 92 % of control
T/C [3]: 103 % of control

Nc1ncc2c(n1)-c1ccccc1OC2
T/C [13]: 92 % of control
T/C [14]: 103 % of control
T/C [15]: 95 % of control

O=c1c2oc3ccccc3c2cnn1CO
T/C (dose: 12.5 mg/kg/injection, schedule: Q01DX009 (ip), vehicle: saline with Tween-80): 103 % of control and 97 % of control
T/C (dose: 25.0 mg/kg/injection, schedule: Q01DX009 (ip), vehicle: saline with Tween-80): 100 % of control and 105 % of control
T/C [12]: 102 % of control and 108 % of control
T/C [4]: 105 % of control and 117 % of control

C=COC(=O)N(C)C
T/C [16]: 110 % of control
T/C (dose: 50.0 mg/kg/injection, schedule: Q01DX009 (ip), vehicle: saline): 118 % of control
T/C (dose: 100.0 mg/kg/injection, schedule: Q01DX009 (ip), vehicle: saline): 115 % of control
T/C (dose: 200.0 mg/kg/injection, schedule: Q01DX009 (ip), vehicle: saline): 120 % of control

COc1ccc2cc3cnccc3cc2c1OC
T/C [9]: 99 % of control
T/C [10]: 97 % of control
T/C [11]: 94 % of control
T/C (dose: 100.0 mg/kg/injection, schedule: Q01DX009 (ip), vehicle: water): 102 % of control
T/C (dose: 200.0 mg/kg/injection, schedule: Q01DX009 (ip), vehicle: water): 96 % of control
